6 compounds from patent publication US20260166128A1, “HUMAN AMYLIN ANALOG, AND DERIVATIVE THEREOF AND USE THEREOF” (priority 2022, published 2026) can be followed below.

The target in one data set is T1, human amylin receptor (Homo sapiens, UniProt O60896+P30988).
T1 construct: host or cells: CHO-K1/Ga15/AMY3 cells, further stably transfected with a CRE-luciferase plasmid
T1 sequence (P30988 25-474): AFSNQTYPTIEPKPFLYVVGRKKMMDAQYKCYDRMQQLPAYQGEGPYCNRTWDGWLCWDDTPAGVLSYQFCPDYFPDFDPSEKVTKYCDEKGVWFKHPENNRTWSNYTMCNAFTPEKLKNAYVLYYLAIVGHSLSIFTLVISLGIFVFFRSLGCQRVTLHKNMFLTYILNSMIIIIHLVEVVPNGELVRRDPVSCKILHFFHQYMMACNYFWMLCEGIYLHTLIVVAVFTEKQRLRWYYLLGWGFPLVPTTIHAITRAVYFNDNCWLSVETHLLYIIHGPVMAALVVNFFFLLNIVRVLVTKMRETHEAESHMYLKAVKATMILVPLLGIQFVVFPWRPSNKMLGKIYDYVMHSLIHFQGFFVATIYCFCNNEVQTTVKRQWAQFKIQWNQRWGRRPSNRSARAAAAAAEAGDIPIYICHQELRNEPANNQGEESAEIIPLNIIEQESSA
T1 sequence (O60896 24-148 partner): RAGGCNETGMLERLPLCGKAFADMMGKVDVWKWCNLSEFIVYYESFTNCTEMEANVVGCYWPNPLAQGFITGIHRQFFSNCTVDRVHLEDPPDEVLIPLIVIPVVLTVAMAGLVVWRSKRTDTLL
In words: Luciferase assay of amylin derivatives in amylin receptor/CRE-luc CHO cell line. The class given is cell-based. As to conditions: CHO-K1/Ga15/AMY3 CRE-luc cells, 24 hours incubation, F12 medium containing 10% FBS; read-out: EC50.

Data set [1] in a line: Freeze-thaw stability of derivatives (freeze-thaw yield by liquid chromatography). The class given is physicochemical. To be noted: for Dissolution property: appearance after dissolution at 0.2 mg/ml in 20 mM phosphate buffer solution (PB) (pH 7.0); for Freeze storage property: appearance after overnight storage at −20° C. and thawing to room temperature, 0.2 mg/ml in 20 mM PB (pH 7.0); for Freeze storage yield: concentration of polypeptide after freezing and thawing / concentration before, by liquid chromatography, −20° C. overnight. The protocol:
The freeze-dried powder of the polypeptide analog derivative prepared in Example 1 was mixed with a buffer solution according to a mass-volume ratio of 0.2 mg/ml, the polypeptide was dissolved with 20 mM phosphate buffer solution (PB) (pH 7.0), the sample was stored at −20° C. for overnight storage, and then the sample was taken out to be restored to room temperature for thawing. During the experiment, property changes of the polypeptide after dissolution and freezing and thawing were observed and recorded respectively, and concentrations of the polypeptide before and after the freezing and thawing were detected by the following liquid chromatography method: Materials and equipment: high-performance liquid chromatographic instrument (Agilent 1200), ultrapure water (18.2 MΩ self-manufactured ultrapure water), acetonitrile (HPLC grade), and trifluoroacetic acid (HPLC grade); and reversed-phase chromatographic column: […] A sample to be tested was centrifuged at 10,000 rpm and 4° C. for 3 minutes, and a supernatant was taken and added into a liquid-phase sample injection bottle. […] A freeze-thaw yield was calculated by the following formula: freeze-thaw yield=concentration of polypeptide after the freezing and thawing/concentration of polypeptide before the freezing and thawing.

Numbered stars: 1 amine (or outer) side, 2 acyl side, 3 side chain; on linkers, the order of the positions; unused ones are H or OH. Bridge positions count the residues as written; N and C are the ends. Square brackets hold non-standard residues; d marks the D form. Side chains are listed from the residue outwards. Peptide text beside a SMILES is read from it. * marks the point of attachment. C20 diacid = O=C(O)CCCCCCCCCCCCCCCCCCC(=O)*; C18 diacid = O=C(O)CCCCCCCCCCCCCCCCC(=O)*; X1 = N[C@@H]1CCN([*:1])[C@@H]1C(=O)[*:2]; C16 diacid = O=C(O)CCCCCCCCCCCCCCC(=O)*; γGlu = O=C(O)[C@H](CCC(=O)[*:2])N[*:1]; Hyp = O=C(O)[C@@H]1C[C@@H](O)CN1; Dap = NC[C@H](N)C(=O)O; AEEA = NCCOCCOCC(=O)O

Procedure for human amylin receptor: The experiment was intended to detect the activity or efficacy of the amylin derivatives on a human amylin receptor in vitro by luciferase assay.
50 μL of growth medium (F12 medium containing 10% FBS) was added into each well of a white 96-well plate, and the stably transfected amylin/CRE-lue CHO cells were inoculated into the white 96-well plate at a density of about 20,000 cells/well for activity determination.

The EC50 is the concentration giving half of the maximal effect. For the compound `CC[C@H](C)[C@H](NC(=O)[C@@H]1CCCN1C(=O)[C@H](CCCCNC(=O)CC[C@H](NC(=O)CCCCCCCCCCCCCCCCCCC(=O)O)C(=O)O)NC(=O)[C@H](CC(C)C)NC(=O)[C@H](CC(N)=O)NC(=O)[C@H](CC(N)=O)NC(=O)[C@H](CO)NC(=O)[C@H](CO)NC(=O)[C@H](Cc1c[nH]cn1)NC(=O)[C@H](CCCNC(=N)N)NC(=O)[C@H](CC(C)C)NC(=O)[C@H](Cc1ccccc1)NC(=O)[C@H](CC(=O)O)NC(=O)[C@H](C)NC(=O)[C@H](CC(C)C)NC(=O)[C@H](CCCNC(=N)N)NC(=O)[C@H](CCC(N)=O)NC(=O)[C@@H](NC(=O)[C@H](C)NC(=O)[C@@H]1CSSC[C@H](NC(=O)[C@@H](N)Cc2c[nH]cn2)C(=O)N[C@@H](CC(N)=O)C(=O)N[C@@H]([C@@H](C)O)C(=O)N[C@@H](C)C(=O)N[C@@H]([C@@H](C)O)C(=O)N1)[C@@H](C)O)C(=O)N[C@@H](CC(C)C)C(=O)N1CCC[C@H]1C(=O)N1CCC[C@H]1C(=O)N[C@H](C(=O)N[C@@H](CC(N)=O)C(=O)N[C@H](C(=O)NCC(=O)N[C@@H](CO)C(=O)N[C@@H](CC(N)=O)C(=O)N[C@H](C(=O)N1C[C@H](O)C[C@H]1C(N)=O)[C@@H](C)O)C(C)C)[C@@H](C)O` [PD078] (H-HCNTATCATQRLADFLRHSSNNLK([γGlu-C20 diacid])PILPPTNVGSNT[Hyp]-NH2; disulfide 2-7), the EC50 at human amylin receptor worked out at 0.035 nM.
On the same count and under the same terms, then `CC[C@H](C)[C@H](NC(=O)[C@H](CCCCNC(=O)COCCOCCNC(=O)CC[C@H](NC(=O)CCCCCCCCCCCCCCCCC(=O)O)C(=O)O)NC(=O)CNC(=O)[C@H](CC(C)C)NC(=O)[C@H](CC(N)=O)NC(=O)[C@H](CC(N)=O)NC(=O)[C@H](CO)NC(=O)[C@H](CO)NC(=O)[C@H](Cc1c[nH]cn1)NC(=O)[C@H](CCCNC(=N)N)NC(=O)[C@H](CC(C)C)NC(=O)[C@H](Cc1ccccc1)NC(=O)[C@H](CC(=O)O)NC(=O)[C@H](C)NC(=O)[C@H](CC(C)C)NC(=O)[C@H](CCCNC(=N)N)NC(=O)[C@H](CCC(N)=O)NC(=O)[C@@H](NC(=O)[C@H](C)NC(=O)[C@@H]1CSSC[C@H](NC(=O)[C@@H](N)CCCNC(=N)N)C(=O)N[C@@H](CC(N)=O)C(=O)N[C@@H]([C@@H](C)O)C(=O)N[C@@H](C)C(=O)N[C@@H]([C@@H](C)O)C(=O)N1)[C@@H](C)O)C(=O)N[C@@H](CC(C)C)C(=O)N1CCC[C@H]1C(=O)N1CCC[C@H]1C(=O)N[C@H](C(=O)N[C@@H](CC(N)=O)C(=O)N[C@H](C(=O)NCC(=O)N[C@@H](CO)C(=O)N[C@@H](CC(N)=O)C(=O)N[C@H](C(=O)N1C[C@H](O)C[C@H]1C(N)=O)[C@@H](C)O)C(C)C)[C@@H](C)O` [PD121] (H-RCNTATCATQRLADFLRHSSNNLGK([AEEA-γGlu-C18 diacid])ILPPTNVGSNT[Hyp]-NH2; disulfide 2-7), with 0.018 nM; and `CC[C@H](C)[C@H](NC(=O)[C@@H]1CCCN1C(=O)[C@H](CN)NC(=O)[C@H](CC(C)C)NC(=O)[C@H](CC(N)=O)NC(=O)[C@H](CC(N)=O)NC(=O)[C@H](CO)NC(=O)[C@H](CO)NC(=O)[C@H](Cc1c[nH]cn1)NC(=O)[C@H](CCCNC(=N)N)NC(=O)[C@H](CC(C)C)NC(=O)[C@H](Cc1ccccc1)NC(=O)[C@H](CC(=O)O)NC(=O)[C@H](C)NC(=O)[C@H](CC(C)C)NC(=O)[C@H](CCCNC(=N)N)NC(=O)[C@H](CCC(N)=O)NC(=O)[C@@H](NC(=O)[C@H](C)NC(=O)[C@@H]1CSSC[C@H](NC(=O)[C@H](CCCCN)NC(=O)CC[C@H](NC(=O)CCCCCCCCCCCCCCCCCCC(=O)O)C(=O)O)C(=O)N[C@@H](CC(N)=O)C(=O)N[C@@H]([C@@H](C)O)C(=O)N[C@@H](C)C(=O)N[C@@H]([C@@H](C)O)C(=O)N1)[C@@H](C)O)C(=O)N[C@@H](CC(C)C)C(=O)N1CCC[C@H]1C(=O)N1CCC[C@H]1C(=O)N[C@H](C(=O)N[C@@H](CC(N)=O)C(=O)N[C@H](C(=O)NCC(=O)N[C@@H](CO)C(=O)N[C@@H](CC(N)=O)C(=O)N[C@H](C(=O)N1CCC[C@H]1C(N)=O)[C@@H](C)O)C(C)C)[C@@H](C)O` [PD168] ({C20 diacid-γGlu}-KCNTATCATQRLADFLRHSSNNL[Dap]PILPPTNVGSNTP-NH2; disulfide 2-7 (inferred)), with 0.041 nM.
Still for that read-out and setting: the value for `CC[C@H](C)[C@H](NC(=O)[C@@H]1CCCN1C(=O)CNC(=O)[C@H](CC(C)C)NC(=O)[C@H](CC(N)=O)NC(=O)[C@H](CC(N)=O)NC(=O)[C@H](CCCCNC(=O)CC[C@H](NC(=O)CCCCCCCCCCCCCCCCC(=O)O)C(=O)O)NC(=O)[C@H](CO)NC(=O)[C@H](Cc1c[nH]cn1)NC(=O)[C@H](CCCNC(=N)N)NC(=O)[C@H](CC(C)C)NC(=O)[C@H](Cc1ccccc1)NC(=O)[C@H](CC(=O)O)NC(=O)[C@H](C)NC(=O)[C@H](CC(C)C)NC(=O)[C@H](CCCNC(=N)N)NC(=O)[C@H](CCC(N)=O)NC(=O)[C@@H](NC(=O)[C@H](C)NC(=O)[C@@H]1CSSC[C@H](NC(=O)[C@@H](N)CCCNC(=N)N)C(=O)N[C@@H](CC(N)=O)C(=O)N[C@@H]([C@@H](C)O)C(=O)N[C@@H](C)C(=O)N[C@@H]([C@@H](C)O)C(=O)N1)[C@@H](C)O)C(=O)N[C@@H](CC(C)C)C(=O)N1CCC[C@H]1C(=O)N1CCC[C@H]1C(=O)N[C@H](C(=O)N[C@@H](CC(N)=O)C(=O)N[C@H](C(=O)NCC(=O)N[C@@H](CO)C(=O)N[C@@H](CC(N)=O)C(=O)N[C@H](C(=O)N1C[C@H](O)C[C@H]1C(N)=O)[C@@H](C)O)C(C)C)[C@@H](C)O` [PD096] (H-RCNTATCATQRLADFLRHSK([γGlu-C18 diacid])NNLGPILPPTNVGSNT[Hyp]-NH2; disulfide 2-7) was 0.042 nM.
Consider “PD138: KCNTATCATQRLADFLRHSSNNLGPILPPTNVGSNT-trans-Hyp-NH2; N-terminal, 1K-ϵ; γGlu + C16 diacid ({C16 diacid-γGlu}-K([γGlu-C16 diacid])CNTATCATQRLADFLRHSSNNLGPILPPTNVGSNT-{trans‑Hyp-NH2}; disulfide 2-7 (inferred))”, for which, in data set [1], the Dissolution property entry is “Clear”, the Freeze storage property entry is “Clear” and the Freeze storage yield amounted to 106.03%.
Take `CC[C@H](C)[C@H](NC(=O)[C@@H]1CCCN1C(=O)[C@H](CCCCNC(=O)CC[C@H](NC(=O)CCCCCCCCCCCCCCCCCCC(=O)O)C(=O)O)NC(=O)[C@H](CC(C)C)NC(=O)[C@H](CC(N)=O)NC(=O)[C@H](CC(N)=O)NC(=O)[C@H](CO)NC(=O)[C@H](CO)NC(=O)[C@H](Cc1c[nH]cn1)NC(=O)[C@H](CCCNC(=N)N)NC(=O)[C@H](CC(C)C)NC(=O)[C@H](Cc1ccccc1)NC(=O)[C@H](CC(=O)O)NC(=O)[C@H](C)NC(=O)[C@H](CC(C)C)NC(=O)[C@H](CCCNC(=N)N)NC(=O)[C@H](CCC(N)=O)NC(=O)[C@@H](NC(=O)[C@H](C)NC(=O)[C@@H]1CSSC[C@H](NC(=O)[C@@H](N)CCCNC(=N)N)C(=O)N[C@@H](CC(N)=O)C(=O)N[C@@H]([C@@H](C)O)C(=O)N[C@@H](C)C(=O)N[C@@H]([C@@H](C)O)C(=O)N1)[C@@H](C)O)C(=O)N[C@@H](CC(C)C)C(=O)N1CCC[C@H]1C(=O)N1CCC[C@H]1C(=O)N[C@H](C(=O)N[C@@H](CC(N)=O)C(=O)N[C@H](C(=O)NCC(=O)N[C@@H](CO)C(=O)N[C@@H](CC(N)=O)C(=O)N[C@H](C(=O)N1CC[C@@H](N)[C@H]1C(N)=O)[C@@H](C)O)C(C)C)[C@@H](C)O` [PD062] (H-RCNTATCATQRLADFLRHSSNNLK([γGlu-C20 diacid])PILPPTNVGSNT[X1]-NH2; disulfide 2-7; N-terminus assumed): in data set [1], the Dissolution property entry is “Clear”, the Freeze storage property result was “Clear” and the Freeze storage yield is listed as 102.63%.
